Data on two compounds can be found in patent US20190364895A1, “ANTIMICROBIAL COMPOUNDS OR PRECURSORS THEREOF COMRPISING ONE OR MORE CATIONIC CENTERS AND A COATING-INCORPORATION GROUP” (Exigence Technologies Inc., priority 2016, published 2019).

The assay concerns E. coli (ATCC 25922). The assay can be described thus: Biocidal activity of coated hard-substrates, ISO 22196 methodology. Type of assay: cell-based. The conditions noted are these: 5% FBS and MH Broth. The procedure: Tables 27 to 35 summarize the biocidal activity of the coated hard-substrates as assessed using the ISO 22196 methodology. Briefly, control and chlorinated samples of the coated hard-substrates (chlorinated at 200 ppm for 10 minutes) were challenged with E. coli (ATCC 25922). Using a pipette, 200 μL of test inoculum were transferred at a concentration of 1-2×10^6 CFU/mL (in sterile DI water, 5% fetal bovine serum or 100% Mueller-Hinton broth) onto a 50 mm×50 mm plastic test surface in a sterile petri dish. The test inoculum was covered with a piece of PET (polyethylene terephthalate) film that measured 40 mm×40 mm. A slight pressure was applied to the film so that the test inoculum spread to the edges. The test inoculum was kept within the edges of the film and was capped with the lid of the petri dish. Contact times for the samples were 10, 30 and 60 minutes. Then the samples were quenched with 10 mL of sterile 0.05 M sodium thiosulfate solution to remove all oxidative chlorine in the petri dish. This quenching step was followed by repetitive washing and 1 minute of sonication. […] The plates were incubated at 37° C. for about 16 hours to about 18 hours, and viable bacterial colonies were recorded for kill kinetics analysis. The logarithm reduction was determined as follows: […]

For the compound `CCCC[P+](C)(CCCC[P+](CCCCCCCCCC[N+](C)(CCCN)CCCN)(c1ccccc1)c1ccccc1)c1ccccc1.[Br-].[Br-].[Br-]` (centres unmarked) [C4-P—C4-P—C10-BIS-C3-NH2], the “biocidal activity (in words)” value was “poor biocidal activity”.

For the compound `CC1(C)CC([N+](C)(C)CCCC[P+](CCCC[P+](CCCC[N+](C)(CCCN)CCCN)(c2ccccc2)c2ccccc2)(c2ccccc2)c2ccccc2)CC(C)(C)N1.[Br-].[Br-].[Br-].[Br-]` [PIP—C4-P—C4-P—C4-BIS-C3-NH2], the “biocidal activity (in words)” value was “had biocidal activity”.
